Source: PubChem BioAssay (NCI)
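GI50: concentration for 50% inhibition of growth. TGI: concentration producing complete growth inhibition.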

Columns and labels:
Test in all cases: NCI anticancer screen, dose series, 384-well format
RXF 393 renal = test system: RXF 393 renal
UACC-257 melanoma = test system: UACC-257 melanoma
SF-295 CNS = test system: SF-295 CNS
OVCAR-4 ovarian = test system: OVCAR-4 ovarian
CCRF-CEM leukemia = test system: CCRF-CEM leukemia
HL-60(TB) leukemia = test system: HL-60(TB) leukemia
M14 melanoma = test system: M14 melanoma
KM12 colon = test system: KM12 colon
MALME-3M melanoma = test system: MALME-3M melanoma
BT-549 breast = test system: BT-549 breast
T-47D breast = test system: T-47D breast
IGROV1 ovarian = test system: IGROV1 ovarian
OVCAR-5 ovarian = test system: OVCAR-5 ovarian
MDA-MB-231 breast = test system: MDA-MB-231 breast
MDA-MB-468 breast = test system: MDA-MB-468 breast
CAKI-1 renal = test system: CAKI-1 renal
SK-OV-3 ovarian = test system: SK-OV-3 ovarian
NCI-H322M lung = test system: NCI-H322M lung
A549 NSCLC = test system: A549 NSCLC
A498 renal = test system: A498 renal
HS 578T breast = test system: HS 578T breast
HCT-116 colon = test system: HCT-116 colon
SF-268 CNS = test system: SF-268 CNS
PC-3 prostate = test system: PC-3 prostate
UACC-62 melanoma = test system: UACC-62 melanoma
SNB-75 CNS = test system: SNB-75 CNS
SK-MEL-2 melanoma = test system: SK-MEL-2 melanoma
MDA-MB-435 melanoma = test system: MDA-MB-435 melanoma
LOX IMVI melanoma = test system: LOX IMVI melanoma
RPMI-8226 leukemia = test system: RPMI-8226 leukemia
UO-31 renal = test system: UO-31 renal
MCF7 breast = test system: MCF7 breast
786-0 renal = test system: 786-0 renal
COLO 205 colon = test system: COLO 205 colon
NCI-H522 lung = test system: NCI-H522 lung
ACHN renal = test system: ACHN renal
K-562 leukemia = test system: K-562 leukemia
U251 glioblastoma = test system: U251 glioblastoma
SNB-19 CNS = test system: SNB-19 CNS
HCC-2998 colon = test system: HCC-2998 colon
MOLT-4 leukemia = test system: MOLT-4 leukemia
HOP-92 NSCLC = test system: HOP-92 NSCLC
HCT-15 colon = test system: HCT-15 colon
SR leukemia = test system: SR leukemia
HT29 colon = test system: HT29 colon
SN12C renal = test system: SN12C renal
EKVX NSCLC = test system: EKVX NSCLC
NCI/ADR-RES ovarian = test system: NCI/ADR-RES ovarian
SK-MEL-5 melanoma = test system: SK-MEL-5 melanoma
NCI-H226 lung = test system: NCI-H226 lung
SF-539 CNS = test system: SF-539 CNS
NCI-H23 lung = test system: NCI-H23 lung
NCI-H460 NSCLC = test system: NCI-H460 NSCLC

Structure (SMILES): CC(C)c1cc(-c2n[nH]c(=O)n2-c2ccc3c(ccn3C)c2)c(O)cc1O
- GI50 (RXF 393 renal): < 0.01 µM
- TGI (RXF 393 renal): 11.5 µM
- GI50 (UACC-257 melanoma): 0.0424 µM
- TGI (UACC-257 melanoma): 22.6 µM
- GI50 (SF-295 CNS): 0.017 µM
- TGI (SF-295 CNS): 0.0466 µM
- GI50 (OVCAR-4 ovarian): < 0.01 µM
- TGI (OVCAR-4 ovarian): > 100 µM
- GI50 (CCRF-CEM leukemia): < 0.01 µM
- TGI (CCRF-CEM leukemia): 0.0152 µM
- GI50 (HL-60(TB) leukemia): < 0.01 µM
- TGI (HL-60(TB) leukemia): < 0.01 µM
- GI50 (M14 melanoma): < 0.01 µM
- TGI (M14 melanoma): 2.69 µM
- GI50 (KM12 colon): < 0.01 µM
- TGI (KM12 colon): 0.0849 µM
- GI50 (MALME-3M melanoma): < 0.01 µM
- TGI (MALME-3M melanoma): < 0.01 µM
- GI50 (BT-549 breast): < 0.01 µM
- TGI (BT-549 breast): < 0.01 µM
- GI50 (T-47D breast): 0.0282 µM
- TGI (T-47D breast): 1.57 µM
- GI50 (IGROV1 ovarian): < 0.01 µM
- TGI (IGROV1 ovarian): 0.0214 µM
- GI50 (OVCAR-5 ovarian): 0.0218 µM
- TGI (OVCAR-5 ovarian): 13.5 µM
- GI50 (MDA-MB-231 breast): 0.0191 µM
- TGI (MDA-MB-231 breast): 0.072 µM
- GI50 (MDA-MB-468 breast): < 0.01 µM
- TGI (MDA-MB-468 breast): < 0.01 µM
- GI50 (CAKI-1 renal): 0.0195 µM
- TGI (CAKI-1 renal): 18 µM
- GI50 (SK-OV-3 ovarian): 0.0123 µM
- TGI (SK-OV-3 ovarian): 2.44 µM
- GI50 (NCI-H322M lung): 0.0199 µM
- TGI (NCI-H322M lung): 16.2 µM
- GI50 (A549 NSCLC): < 0.01 µM
- TGI (A549 NSCLC): 14 µM
- GI50 (A498 renal): 0.0261 µM
- TGI (A498 renal): 17.2 µM
- GI50 (HS 578T breast): < 0.01 µM
- TGI (HS 578T breast): 0.0615 µM
- GI50 (HCT-116 colon): 0.0188 µM
- TGI (HCT-116 colon): 10.5 µM
- GI50 (SF-268 CNS): 0.0154 µM
- TGI (SF-268 CNS): 28.4 µM
- GI50 (PC-3 prostate): 0.0102 µM
- TGI (PC-3 prostate): 0.0527 µM
- GI50 (UACC-62 melanoma): < 0.01 µM
- TGI (UACC-62 melanoma): 0.0316 µM
- GI50 (SNB-75 CNS): < 0.01 µM
- TGI (SNB-75 CNS): 0.046 µM
- GI50 (SK-MEL-2 melanoma): < 0.01 µM
- TGI (SK-MEL-2 melanoma): < 0.01 µM
- GI50 (MDA-MB-435 melanoma): < 0.01 µM
- TGI (MDA-MB-435 melanoma): 22.6 µM
- GI50 (LOX IMVI melanoma): < 0.01 µM
- TGI (LOX IMVI melanoma): 0.0207 µM
- GI50 (RPMI-8226 leukemia): < 0.01 µM
- TGI (RPMI-8226 leukemia): 0.0129 µM
- GI50 (UO-31 renal): < 0.01 µM
- TGI (UO-31 renal): 11.8 µM
- GI50 (MCF7 breast): < 0.01 µM
- TGI (MCF7 breast): 16.4 µM
- GI50 ([…]-0 renal): < 0.01 µM
- TGI (786-0 renal): 0.0781 µM
- GI50 (COLO 205 colon): < 0.01 µM
- TGI (COLO 205 colon): 0.0567 µM
- GI50 (NCI-H522 lung): < 0.01 µM
- TGI (NCI-H522 lung): < 0.01 µM
- GI50 (ACHN renal): < 0.01 µM
- TGI (ACHN renal): > 100 µM
- GI50 (K-562 leukemia): < 0.01 µM
- TGI (K-562 leukemia): 0.027 µM
- GI50 (U251 glioblastoma): < 0.01 µM
- TGI (U251 glioblastoma): 0.0243 µM
- GI50 (SNB-19 CNS): 0.0134 µM
- TGI (SNB-19 CNS): 0.0745 µM
- GI50 (HCC-2998 colon): < 0.01 µM
- TGI (HCC-2998 colon): 0.0156 µM
- GI50 (MOLT-4 leukemia): < 0.01 µM
- TGI (MOLT-4 leukemia): < 0.01 µM
- GI50 (HOP-92 NSCLC): 0.0118 µM
- TGI (HOP-92 NSCLC): 0.0363 µM
- GI50 (HCT-15 colon): < 0.01 µM
- TGI (HCT-15 colon): 13.1 µM
- GI50 (SR leukemia): < 0.01 µM
- TGI (SR leukemia): < 0.01 µM
- GI50 (HT29 colon): 0.0364 µM
- TGI (HT29 colon): 13.4 µM
- GI50 (SN12C renal): < 0.01 µM
- TGI (SN12C renal): 0.0367 µM
- GI50 (EKVX NSCLC): 0.0118 µM
- TGI (EKVX NSCLC): 0.0763 µM
- GI50 (NCI/ADR-RES ovarian): 0.0226 µM
- TGI (NCI/ADR-RES ovarian): 0.0691 µM
- GI50 (SK-MEL-5 melanoma): < 0.01 µM
- TGI (SK-MEL-5 melanoma): 3.69 µM
- GI50 (NCI-H226 lung): 0.0465 µM
- TGI (NCI-H226 lung): 0.603 µM
- GI50 (SF-539 CNS): < 0.01 µM
- TGI (SF-539 CNS): < 0.01 µM
- GI50 (NCI-H23 lung): < 0.01 µM
- TGI (NCI-H23 lung): 0.0238 µM
- GI50 (NCI-H460 NSCLC): < 0.01 µM
- TGI (NCI-H460 NSCLC): < 0.01 µM
